Assay results taken from PMC5085100, “Conjugation to the sigma-2 ligand SV119 overcomes uptake blockade and converts dm-Erastin into a potent pancreatic cancer therapeutic” (Oncotarget, 2016).

Target: T1, cystine/glutamate antiporter (system xc-) (Homo sapiens, UniProt Q9UPY5)
T1 construct: gene SLC7A11
T1 sequence (Q9UPY5 1-501): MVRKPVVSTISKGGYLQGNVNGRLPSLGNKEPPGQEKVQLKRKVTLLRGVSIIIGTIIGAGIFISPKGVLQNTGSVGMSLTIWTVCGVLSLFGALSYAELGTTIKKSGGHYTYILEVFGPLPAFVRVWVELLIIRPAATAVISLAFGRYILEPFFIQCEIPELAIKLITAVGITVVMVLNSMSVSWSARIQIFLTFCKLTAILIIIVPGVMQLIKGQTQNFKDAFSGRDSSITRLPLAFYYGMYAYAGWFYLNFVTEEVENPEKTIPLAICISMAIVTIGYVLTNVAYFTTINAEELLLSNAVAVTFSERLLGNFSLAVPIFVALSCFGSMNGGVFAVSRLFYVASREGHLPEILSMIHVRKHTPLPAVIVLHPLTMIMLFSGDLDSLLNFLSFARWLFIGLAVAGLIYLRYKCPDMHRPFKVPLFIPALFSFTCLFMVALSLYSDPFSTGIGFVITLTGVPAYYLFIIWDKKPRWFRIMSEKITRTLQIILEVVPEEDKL
T1 sequence (P08195 2-529 partner): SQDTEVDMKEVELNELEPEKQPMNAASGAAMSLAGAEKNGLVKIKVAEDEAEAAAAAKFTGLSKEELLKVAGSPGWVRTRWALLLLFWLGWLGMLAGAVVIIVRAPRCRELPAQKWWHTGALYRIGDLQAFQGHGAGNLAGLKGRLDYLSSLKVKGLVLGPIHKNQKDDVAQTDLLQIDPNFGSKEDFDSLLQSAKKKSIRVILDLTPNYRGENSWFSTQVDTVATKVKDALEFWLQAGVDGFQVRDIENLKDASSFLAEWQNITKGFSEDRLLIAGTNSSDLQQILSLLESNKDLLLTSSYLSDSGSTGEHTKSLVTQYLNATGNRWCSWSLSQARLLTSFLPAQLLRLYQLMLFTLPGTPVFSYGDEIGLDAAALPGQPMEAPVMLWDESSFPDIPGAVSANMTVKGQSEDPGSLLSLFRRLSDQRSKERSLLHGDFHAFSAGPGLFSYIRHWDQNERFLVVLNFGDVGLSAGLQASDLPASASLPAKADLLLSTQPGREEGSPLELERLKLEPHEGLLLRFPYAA
Experiment: […]-cystine uptake inhibition in AsPC-1 cells, […] min at […]
Assay type: cell-based
Conditions: ASPC1; read-out: % blockade at 200 μM

CCOc1ccccc1-n1c(CN2CCN(C(=O)COc3ccc(CNCCCCCCN4C5CCCC4CC(OC(=O)Nc4cc(C)ccc4OC)C5)cc3)CC2)nc2ccccc2c1=O (stereo not shown) [SW V-49]
inhibition at 200 µM: 85%
